From publication PMC11096521 (Frontiers in Pharmacology, 2024) come the findings set out here.

For one data set, the target named is T1, BCRP (Homo sapiens, UniProt Q9UNQ0).
T1 construct: gene ABCG2
T1 sequence (Q9UNQ0 1-655): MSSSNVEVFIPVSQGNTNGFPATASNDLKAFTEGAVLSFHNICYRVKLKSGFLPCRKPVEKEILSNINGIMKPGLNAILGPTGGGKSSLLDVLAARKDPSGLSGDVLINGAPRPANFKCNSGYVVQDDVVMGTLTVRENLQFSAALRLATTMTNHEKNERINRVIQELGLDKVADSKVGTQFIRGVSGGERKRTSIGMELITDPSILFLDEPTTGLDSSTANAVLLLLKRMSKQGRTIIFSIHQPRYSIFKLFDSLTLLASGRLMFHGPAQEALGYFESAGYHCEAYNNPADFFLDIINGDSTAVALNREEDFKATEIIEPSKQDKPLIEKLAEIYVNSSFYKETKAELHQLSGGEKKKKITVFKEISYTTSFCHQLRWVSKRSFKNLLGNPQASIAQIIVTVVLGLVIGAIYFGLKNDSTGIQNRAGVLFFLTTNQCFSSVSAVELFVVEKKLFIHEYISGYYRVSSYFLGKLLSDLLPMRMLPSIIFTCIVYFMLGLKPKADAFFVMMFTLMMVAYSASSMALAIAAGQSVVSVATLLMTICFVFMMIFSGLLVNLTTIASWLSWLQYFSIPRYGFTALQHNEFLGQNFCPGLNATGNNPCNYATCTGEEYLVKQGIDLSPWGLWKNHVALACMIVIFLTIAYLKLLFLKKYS

For another data set, the target named is T2, P-gp (Homo sapiens, UniProt P08183).
T2 construct: gene ABCB1; crude membrane protein isolated from High Five insect cells
T2 sequence (P08183 whole entry): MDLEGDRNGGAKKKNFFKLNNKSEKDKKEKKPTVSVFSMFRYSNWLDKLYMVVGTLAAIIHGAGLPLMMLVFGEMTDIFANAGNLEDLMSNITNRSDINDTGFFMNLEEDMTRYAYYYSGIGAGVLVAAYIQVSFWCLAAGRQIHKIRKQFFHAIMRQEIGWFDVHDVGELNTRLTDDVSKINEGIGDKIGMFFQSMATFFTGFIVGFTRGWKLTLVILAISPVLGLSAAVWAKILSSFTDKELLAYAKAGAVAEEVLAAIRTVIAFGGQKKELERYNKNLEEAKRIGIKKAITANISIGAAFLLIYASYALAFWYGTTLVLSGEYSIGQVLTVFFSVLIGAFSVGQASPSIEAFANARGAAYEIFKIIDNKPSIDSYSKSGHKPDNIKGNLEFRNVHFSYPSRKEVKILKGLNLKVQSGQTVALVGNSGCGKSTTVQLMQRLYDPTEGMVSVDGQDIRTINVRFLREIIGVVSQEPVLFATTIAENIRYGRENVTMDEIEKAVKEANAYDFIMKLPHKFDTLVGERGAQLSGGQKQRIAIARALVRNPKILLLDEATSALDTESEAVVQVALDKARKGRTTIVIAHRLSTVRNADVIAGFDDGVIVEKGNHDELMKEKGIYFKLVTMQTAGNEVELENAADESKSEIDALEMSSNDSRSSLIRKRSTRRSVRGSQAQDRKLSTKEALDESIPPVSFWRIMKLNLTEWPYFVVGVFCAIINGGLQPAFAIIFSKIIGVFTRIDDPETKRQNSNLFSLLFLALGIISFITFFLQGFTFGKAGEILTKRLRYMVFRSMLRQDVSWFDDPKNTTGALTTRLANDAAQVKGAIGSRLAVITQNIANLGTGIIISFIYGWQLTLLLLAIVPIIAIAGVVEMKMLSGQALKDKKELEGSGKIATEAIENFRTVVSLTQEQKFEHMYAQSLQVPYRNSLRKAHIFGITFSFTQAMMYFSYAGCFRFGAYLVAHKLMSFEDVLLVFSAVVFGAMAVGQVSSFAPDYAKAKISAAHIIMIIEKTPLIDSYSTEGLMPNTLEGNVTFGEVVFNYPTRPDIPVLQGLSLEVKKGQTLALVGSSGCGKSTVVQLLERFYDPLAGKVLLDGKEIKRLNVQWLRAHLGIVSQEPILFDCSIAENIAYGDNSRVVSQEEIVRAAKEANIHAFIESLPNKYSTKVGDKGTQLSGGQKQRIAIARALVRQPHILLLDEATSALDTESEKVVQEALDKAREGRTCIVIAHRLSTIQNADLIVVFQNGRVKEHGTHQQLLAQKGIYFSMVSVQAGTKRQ
The data set can be described thus: inhibition of ceralasertib-stimulated P-gp ATPase in crude membranes.

For the compound `O=C1c2c(O)ccc(O)c2C(=O)c2c(NCCNCCO)ccc(NCCNCCO)c21` [mitoxantrone], the “radiolabelled efflux/accumulation in NCI-H460/TPT10 cells, reversed by Ko143” value on BCRP was “BCRP-overexpressing NCI-H460/TPT10 cells have decreased intracellular level of [^3H]-mitoxantrone, which can be reversed by Ko143”.
As for `CN1CCC(COc2cnc(-c3cccc(Cn4nc(-c5cccc(C#N)c5)ccc4=O)c3)nc2)CC1` [tepotinib], the “inhibition of ceralasertib-stimulated P-gp ATPase in crude membranes” value against P-gp is reported as “Tepotinib, a P-gp ATPase inhibitor, was able to significantly block the activation caused by ceralasertib”.
